Assay results: PubChem BioAssay (NCI)
Several values for one entry are separate records, joined by “and”; a condition that tells them apart may be missing. Identical values can stand only once.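 Cultured in 96-well plates, cells were exposed to test compound for 48 hours across five concentrations. Abbreviation: GI50, concentration required for 50% inhibition of growth. TGI denotes the concentration required for complete inhibition of growth.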

How the values were obtained:
Assay in all cases: NCI tumour cell line growth inhibition, 48 h
M19-MEL melanoma = tested on: M19-MEL melanoma
RXF-631 renal = tested on: RXF-631 renal
XF 498 CNS = tested on: XF 498 CNS
BT-549 breast = tested on: BT-549 breast
DU-145 prostate = tested on: DU-145 prostate
HS 578T breast = tested on: HS 578T breast
MDA-MB-435 = tested on: MDA-MB-435
MDA-N = tested on: MDA-N
P388 leukemia = tested on: P388 leukemia
P388/ADR leukemia = tested on: P388/ADR leukemia
PC-3 prostate = tested on: PC-3 prostate
SN12K1 renal = tested on: SN12K1 renal

Row | Structure (SMILES) | TGI (M19-MEL melanoma) [µM] | TGI (RXF-631 renal) [µM] | TGI (XF 498 CNS) [µM] | also measured
1 | COc1ccc(/C=C2\CCC(C)(CN(C)C)C2=O)cc1 (centres undefined) | > 100 | > 100 | > 100 | –
2 | C1=Cc2nc1c(-c1ccncc1)c1ccc([n-]1)c(-c1ccncc1)c1nc(c(-c3ccncc3)c3ccc([n-]3)c2-c2ccncc2)C=C1.[Zn+2] | > 100 | > 100 | > 100 | –
3 | COC(=O)C1=C(CO)C2C=CC1C2 (centres undefined) | > 100 | > 100 | > 100 | –
4 | Nc1c(-c2ccc(Cl)cc2Cl)[n+]([O-])c2ccccc2[n+]1[O-] | > 100 | > 100 | > 100 | –
5 | Cc1cc(Cl)ccc1N=C1NC(=O)C(CC(=O)Nc2ccc(Cl)cc2Cl)S1 (centres undefined) | > 100 | > 100 | > 100 | –
6 | CC1C=CC(=O)C(n2cc(F)c(=O)[nH]c2=O)O1 (centres undefined) | 36.3 | 48 | 28.7 | –
7 | NC1=N/C(=C2/CCNC(=O)c3[nH]c(Br)cc32)C(=O)N1 | > 100 | – | > 100 | TGI (BT-549 breast): 53.3 µM; TGI (DU-145 prostate): > 100 µM; TGI (HS 578T breast): > 91.2 µM; TGI (MDA-MB-435): > 55.5 µM; TGI (MDA-N): > 43.3 µM; TGI (P388 leukemia): 86.1 µM; TGI (P388/ADR leukemia): > 100 µM; TGI (PC-3 prostate): > 100 µM; TGI (SN12K1 renal): > 100 µM
8 | CCOC(=O)/C(=C/c1ccc(C#N)cc1)N(CC)CC | > 100 | > 100 | > 100 | –
9 | CC12CCC[C@@](C)(C(=O)OC3OC(CO)C(O)C(O)C3O)[C@H]1CCC13CC4CC(OC4(CO)[C@H]1O)[C@@H]23 (some centres undefined) | > 100 | > 100 | > 100 | –
10 | CN(C)CCNC(=O)c1cccc2[nH]c(-c3ccccc3)nc12 | 33.5 | 57.9 | – | –
11 | CC(C)(C)C(=O)C1CC(=O)c2ccccc2C1=O (centres undefined) | > 100 | > 100 | > 100 | –
12 | O=C1OC(O)C(Oc2ccc(Cl)cc2)=C1Cl (centres undefined) | > 100 | > 100 | – | –
13 | CC1OC(OCC2COC(O)(Oc3c(-c4ccc(O)c(O)c4)oc4cc(O)cc(O)c4c3=O)C(O)C2O)C(O)C(O)C1O (centres undefined) | > 100 | > 100 | > 100 | –
14 | CS(=O)(=O)Nc1ccc(Nc2c3ccccc3nc3ccccc23)cc1 | 15 | 16.9 | 14.9 | TGI (BT-549 breast): 39.4 µM; TGI (DU-145 prostate): > 23.1 µM; TGI (HS 578T breast): 49.3 µM; TGI (MDA-MB-435): 33.7 µM; TGI (MDA-N): 37 µM; TGI (PC-3 prostate): 19.3 µM
15 | N#CCCN(c1ccc(-c2nnc(NC(=O)CNNC(=O)CC(=O)Nc3ccccc3)s2)cc1)S(=O)(=O)c1ccccc1 | > 100 | > 100 | > 100 | –
16 | Cc1ccc(Cl)c(NC(=O)C(=O)C(C(=O)c2ccncc2)C2OC(=O)c3ccccc32)c1 (centres undefined) | > 100 | > 100 | > 100 | –
17 | O=C(Nc1nc2ncn(CC(COc3ccccc3)OC(=O)c3ccccc3)c2c(=O)[nH]1)c1ccccc1 (centres undefined) | > 100 | > 100 | > 100 | –
18 | CC1=C(C(=O)Nc2ccc(Cl)c(Cl)c2)C(c2ccco2)C(C(=O)Nc2ccc(Cl)c(Cl)c2)=C(C)N1 | 24.9 | 46 | 7.94 | –
19 | OCC12C3C4C1C1C2C3C41CO (centres undefined) | > 100 | > 100 | > 100 | –
20 | CCOC(=O)c1cn(Cc2ccccc2)c(=O)n1Cc1ccccc1 | > 100 | > 100 | > 100 | –
21 | Cc1ccc(C)c(NC(=O)CC/C(=N\NC(=O)C(N)=O)C(C)C(=O)c2ccc(O)cc2)c1 (centres undefined) | > 100 | > 100 | – | –
22 | Cc1ccccc1CN1CC=c2ccccc2=N1 | > 100 | > 100 | > 100 | –
23 | CO[C@@H]1[C@H](OC(=O)NC(=O)CCl)CC[C@]2(CO2)[C@H]1[C@@]1(C)O[C@@H]1CC=C(C)C | 24.2 | 3.14 | – | GI50 (BT-549 breast): 16.8 µM; TGI (BT-549 breast): 37.6 µM and 59.1 µM; GI50 (DU-145 prostate): 22.2 µM; TGI (DU-145 prostate): 29.3 µM and 46.3 µM; TGI (HS 578T breast): 63.7 µM and 157 µM; GI50 (M19-MEL melanoma): 1.17 µM; GI50 (MDA-MB-435): 5.68 µM; TGI (MDA-MB-435): 29.3 µM and 36.8 µM; TGI (MDA-N): 27.3 µM; GI50 (PC-3 prostate): 25.3 µM; TGI (PC-3 prostate): 28.6 µM and 57.2 µM
24 | CCN(CC)C(=O)COc1ccc(Br)cc1Br | > 100 | > 100 | – | –
25 | O=C1C(=O)C(Br)(Br)C(Br)=C1Br | 34.4 | > 100 | – | –
